Drawing on PubChem BioAssay (NCI), this text covers GI50 and TGI for nine compounds.

Molecules are shown by their SMILES.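 A five-concentration, 48-hour dose response in 96-well plates underlies each endpoint, interpolated linearly between surrounding concentrations. Here, GI50 denotes the concentration required for 50% inhibition of growth. The concentration for full growth arrest is given as TGI.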 Some results are limits rather than exact numbers.

Among the test systems are HCT-15 colon; OVCAR-4 ovarian; NCI-H522 lung; BT-549 breast; TK-10 renal; SK-MEL-2 melanoma; HCT-116 colon; SW-620 colon; SK-OV-3 ovarian; SR leukemia.
Common to all, as to assay: NCI tumour cell line growth inhibition, 48 h

As to `CC(C)Oc1ccc(C(=O)N[C@H](CNC(=O)CN(C)C)Cc2ccc(-c3cn4cccc([C@H](C)O)c4n3)cc2)cc1Cl`, the GI50 with HCT-15 colon was 0.423 µM; in the experiment with OVCAR-4 ovarian it was 0.316 µM; in the experiment on NCI-H522 lung, 0.0229 µM; in the experiment with BT-549 breast, 0.068 µM; in the experiment with TK-10 renal, 11.8 µM; in the experiment with SK-MEL-2 melanoma, 0.0434 µM. Besides, the GI50 in the experiment with HCT-116 colon is 0.0355 µM; in the experiment with SW-620 colon, 0.0613 µM; in the experiment with SK-OV-3 ovarian it was 0.0694 µM. Also, the TGI in the experiment on HCT-15 colon is 19.4 µM; in the experiment on OVCAR-4 ovarian it was 18.7 µM; in the experiment on NCI-H522 lung it was 0.0698 µM; with BT-549 breast it was 17.6 µM; with TK-10 renal, 24.6 µM; with SK-MEL-2 melanoma it was 11.1 µM. In addition, the TGI was determined as 14.2 µM in the experiment with HCT-116 colon, 21.6 µM in the experiment with SW-620 colon and 22.9 µM with SK-OV-3 ovarian.
As to `C=C1C(=O)OC2/C=C(\C)C3OC3/C=C(/C(=O)OC)C(OC(C)=O)C(OC(=O)C(C)(O)C(C)OC(C)=O)C12` (centres undefined), the TGI in the experiment on HCT-15 colon is > 34.1 µM; in the experiment with OVCAR-4 ovarian, 12.6 µM; in the experiment on NCI-H522 lung it was 0.871 µM; in the experiment with BT-549 breast it was 2.37 µM; in the experiment with TK-10 renal, 4.21 µM; with SK-MEL-2 melanoma, 20.2 µM. For the same compound, the TGI in the experiment with HCT-116 colon worked out at 6.14 µM; in the experiment on SW-620 colon, 2.25 µM; with SK-OV-3 ovarian, 33 µM.
As for `Cc1nn(-c2ccc(Br)cc2)c(C)c1CC(=O)c1cc(O)ccc1O`, the GI50 with HCT-15 colon was 4.61 µM; in the experiment on OVCAR-4 ovarian it was 15.9 µM; with NCI-H522 lung, 16 µM; in the experiment with BT-549 breast, 15.8 µM; in the experiment on TK-10 renal, 15.5 µM; in the experiment with SK-MEL-2 melanoma it was 23 µM. For the same compound, the GI50 was 0.911 µM in the experiment with SR leukemia, 12.6 µM with HCT-116 colon and 14.4 µM with SW-620 colon. The TGI in the experiment on HCT-15 colon was 15.8 µM; in the experiment with OVCAR-4 ovarian it was > 50 µM; in the experiment on NCI-H522 lung, > 50 µM; in the experiment on BT-549 breast, 38.4 µM; in the experiment on TK-10 renal, > 50 µM; with SK-MEL-2 melanoma, > 50 µM. The TGI in the experiment with SR leukemia, with HCT-116 colon and with SW-620 colon was > 50 µM throughout.
With `CCCN1CCN(c2ccc3nc(-c4ccc5nc(-c6ccc(OCC)c(OCC)c6)[nH]c5c4)[nH]c3c2)CC1`, the GI50 with HCT-15 colon was 1.87 µM; with OVCAR-4 ovarian, 0.449 µM; in the experiment on BT-549 breast, 1.13 µM; in the experiment on TK-10 renal, 1.3 µM; in the experiment on SK-MEL-2 melanoma, 0.508 µM; with SR leukemia, 0.263 µM. The GI50 in the experiment with HCT-116 colon was 0.218 µM; in the experiment on SW-620 colon it was 0.207 µM; with SK-OV-3 ovarian it was 1.6 µM. Further, the TGI stood at 10.3 µM with HCT-15 colon; 1.84 µM in the experiment on OVCAR-4 ovarian; 2.61 µM with BT-549 breast; 4.13 µM with TK-10 renal; 2.01 µM in the experiment with SK-MEL-2 melanoma; 0.896 µM in the experiment with SR leukemia. Moreover, the TGI in the experiment on HCT-116 colon amounted to 1.19 µM; with SW-620 colon, 0.808 µM; in the experiment with SK-OV-3 ovarian it was 7.54 µM.
Take `C=C(CN1CCN(c2cccc(F)c2)CC1)c1ccc(C(=O)Nc2ccccc2N)cc1`: the GI50 with HCT-15 colon was 1.02 µM; in the experiment with OVCAR-4 ovarian, 3.35 µM; with NCI-H522 lung, 0.848 µM; in the experiment on BT-549 breast it was 1.33 µM; in the experiment on TK-10 renal, 5.95 µM; with SK-MEL-2 melanoma, 4.89 µM. Moreover, the GI50 in the experiment on HCT-116 colon was 1.08 µM; with SW-620 colon it was 2.53 µM; in the experiment on SK-OV-3 ovarian it was 5.31 µM. In addition, the TGI with HCT-15 colon is > 100 µM; in the experiment on OVCAR-4 ovarian it was 33.9 µM; in the experiment on NCI-H522 lung, 3.88 µM; in the experiment on BT-549 breast, 12.6 µM; in the experiment on TK-10 renal, > 100 µM; in the experiment on SK-MEL-2 melanoma, > 100 µM. In addition, the TGI in the experiment with HCT-116 colon was 12.5 µM; in the experiment on SW-620 colon it was > 100 µM; in the experiment on SK-OV-3 ovarian, > 100 µM.
As for `CC([O-])C(=O)[O-].NCC1CCC1CN.[Pt+4]` (centres undefined), the GI50 with HCT-15 colon, with OVCAR-4 ovarian, with NCI-H522 lung, in the experiment on BT-549 breast, in the experiment with TK-10 renal and with SK-MEL-2 melanoma was > 10 µM throughout. Also, the GI50 with HCT-116 colon, with SW-620 colon and in the experiment with SK-OV-3 ovarian was > 10 µM each time. The TGI in the experiment on HCT-15 colon, in the experiment with OVCAR-4 ovarian, in the experiment on NCI-H522 lung, in the experiment on BT-549 breast, in the experiment with TK-10 renal and with SK-MEL-2 melanoma was > 10 µM in each case. The TGI with HCT-116 colon, in the experiment on SW-620 colon and in the experiment on SK-OV-3 ovarian was > 10 µM in each case.
Take `CC(=O)c1ccc(NCN2C(=O)c3ccccc3C2=O)cc1`: the TGI with HCT-15 colon, in the experiment with OVCAR-4 ovarian, in the experiment with NCI-H522 lung, in the experiment with BT-549 breast, in the experiment on TK-10 renal and in the experiment on SK-MEL-2 melanoma was > 100 µM throughout. Further, the TGI with HCT-116 colon, in the experiment with SW-620 colon and with SK-OV-3 ovarian was > 100 µM each time.
Take `COc1ccc(Cn2c(Br)c3c(c2-c2cc(OC)c(OC)c(OC)c2)CCc2sc(NC(C)=O)nc2-3)cc1`: the GI50 in the experiment on HCT-15 colon is 3.12 µM; in the experiment on OVCAR-4 ovarian, 3.49 µM; with NCI-H522 lung, 2.17 µM; in the experiment on BT-549 breast, 3.18 µM; in the experiment on TK-10 renal, 6.17 µM; in the experiment with SK-MEL-2 melanoma it was 3.82 µM. Besides, the figures for the GI50 in the experiment with SR leukemia, with HCT-116 colon and in the experiment with SW-620 colon were 2.44 µM, 3.4 µM and 3.63 µM, respectively. In addition, the TGI in the experiment on HCT-15 colon is 32.2 µM; in the experiment on OVCAR-4 ovarian it was > 100 µM; in the experiment with NCI-H522 lung, 9.22 µM; in the experiment on BT-549 breast, 19.4 µM; with TK-10 renal it was 37.6 µM; in the experiment on SK-MEL-2 melanoma, > 100 µM. Further, the TGI with SR leukemia is > 100 µM; with HCT-116 colon, 14.6 µM; in the experiment on SW-620 colon it was > 100 µM.
Turning to `C/C(=N\NC(=O)c1ccncc1)c1ccc(O)cc1O`, the GI50 was 4.83 µM with HCT-15 colon; 2.68 µM in the experiment with OVCAR-4 ovarian; > 100 µM in the experiment with BT-549 breast; > 100 µM with TK-10 renal; > 100 µM with SK-MEL-2 melanoma; 4.16 µM in the experiment with SR leukemia. Besides, the GI50 in the experiment with HCT-116 colon is 3.16 µM; in the experiment on SW-620 colon, 7.68 µM; in the experiment on SK-OV-3 ovarian, 5.34 µM. Moreover, the TGI with HCT-15 colon, in the experiment on OVCAR-4 ovarian, in the experiment with BT-549 breast, with TK-10 renal, in the experiment on SK-MEL-2 melanoma and in the experiment on SR leukemia was > 100 µM each time. For the same compound, the TGI in the experiment with HCT-116 colon, in the experiment on SW-620 colon and with SK-OV-3 ovarian was > 100 µM each time.
